Measurements taken from patent EP3967331A1, “ULTRA-SMALL FLUORESCENT ORGANIC NANOPARTICLES” (Centre national de la recherche scientifique, priority 2020, dated 2022).

Assay: Nile Red probing of the hydrophobic core
Assay type: physicochemical
Conditions: Nile Red 200 nM, excitation 540 nm, water
Experimental: In contrast to the out-stretched configuration of a polymer brush, the folded monomolecular nanoparticle is expected to bear a hydrophobic core (Figure 1), similar to that of micelles made of surfactants. To evidence the presence of this core, we used a solvatochromic dye Nile Red, which is a common tool for identifying low polar environment of micelles^81 and single-chain polymeric NPs. Fluorescence spectra of Nile Red at fixed concentration (200 nM) were recorded with addition of different concentrations of fully PEGylated PMAO polymer with 5 mol% BDP1 (Figure12. A drastic increase in the fluorescence intensity of Nile Red was observed accompanied by ∼30 nm blue shift of the emission band (Figure12A,B,D. The increase in the intensity stabilized above 200 nM polymer concentration (Figure12C, which corresponded well to 1/1 dye/polymer molar ratio. Below this concentration, multiple Nile Red molecules per particle can be present, which leads to dye self-quenching, explaining lower intensity at lower polymer concentrations. On the other hand, the blue shifted emission of Nile Red at ∼630 nm indicates the presence of a hydrophobic binding site in these NPs. The NPs were compared with micelles of Tween 80, having a hydrophobic core formed by hydrocarbon chains. […]

Emission of Nile Red: ~640 nm
Structure (SMILES): CCCCCCCC/C=C\CCCCCCCC(=O)OCCOCC(OCCO)C1OCC(OCCO)C1OCCO (stereo not shown) [Tween 80]
